Read-outs that look alike come from different tables or passages of the source. Ends that are not written are not given here.
Tests used:
[1] = tested on: human hepatic stellate cells LX 2; assay: Cellular uptake of 5 FAM labeled peptides in LX 2 cells (flow cytometry); assay type: cell-based; conditions: for binding affinity compared to the control peptide and other selected peptides: LX 2 cells
Protocol: (§1) We examined cellular uptake of 5 FAM labeled peptides (425, 431, and 515) in human hepatic stellate cells LX 2 upon treatment with nonenzymatic cell dissociation solution and trypsin. […] We also evaluated the effect of incubation time on cellular uptake of the peptides. 5 FAM labeled peptide 431 was incubated with LX 2 cells for different incubation time points. […] Therefore, nonenzymatic cell dissociation solution and 1 h incubation time were selected to evaluate all the peptides (420, 422, 425, 431, 504, and 515) in human hepatic stellate cells LX 2 and rat hepatic stellate cells HSC T6.

IGF2R [2] = molecular target: T1, IGF2R (Homo sapiens, UniProt P11717); assay: Phage ELISA on recombinant human IGF2R protein; assay type: binding; parameters: conducted using recombinant human IGF2R extracellular domain protein (the first, third, and fifth rounds); conditions: compared to peptide insertless control phage and other selected clones
Protocol: The binding affinity of the twenty-eight phages was evaluated by ELISA on recombinant human IGF2R protein. […] Additionally, the particular embodiment may include more specific aspects related to the materials and techniques employed by this method, which are described with more detail in the Experiment section below.
Twenty eight phage clones were randomly selected after the fourth and fifth rounds of biopanning and cultured in 1 mL of ER2738 bacteria (growing in early stage) at 37° C. for 4.5 h. Phage DNA was extracted, purified using the DNA clean system (Promega, Madison, Wis.), and then sequenced with an ABI Genetic Analyzer 3100 (Applied Biosystems, USA). The primer used for sequencing is SEQ ID NO: 14, 5′-CCCTCATAGTTAGCGTA ACG-3′. […] One of the phages was peptide insertless. In FIG. 3B, binding affinity of the selected phage clones encoding inserted peptides was evaluated by ELISA on recombinant human IGF2R protein.

IGF2R [3] = molecular target: T1, IGF2R; assay: Specificity of peptide 431 to IGF2R: uptake in IGF2R-silenced LX 2 cells; assay type: cell-based; parameters: the expression of IGF2R in LX 2 cells was silenced using siRNA; endogenous in cells; host or cells: LX-2 human hepatic stellate cells; conditions: for cellular uptake after silencing IGF2R with siRNA: LX 2, IGF2R siRNA versus scrambled siRNA
Protocol: In addition to affinity, we also evaluated the specificity of peptide 431 to IGF2R in LX 2 cells. For this purpose, the expression of IGF2R in LX 2 cells was silenced using siRNA As shown in FIGS. 11A-11B, the IGF2R siRNA (10 and 50 nM) dramatically knocked down the expression of IGF2R in LX 2 cells at the mRNA and protein levels.

LX-2 cells = assay: Cellular uptake of siRNA nanocomplexes in LX-2 cells; assay type: cell-based, human; conditions: siRNA nanocomplex modified with Peptide-431 (SNPP) versus free siRNA, SNCP, SNVP, 50 nM siRNA
Protocol: (§2) The siRNA was labeled with Alexa Flour-647, and the nanocomplexes were prepared using neutravidin as we reported before. Approximately 100,000 cells (HSC-T6, LX-2)/well were seed into 24 well plate and incubator at 37 C for 12 hrs, free siRNA and nanocomplexes (SNCP, SNVP, SNPP) were then incubated with the cells at a final siRNA concentration of 50 nM. The fluorescence intensity of the cells at different intervals was detected by FACSCalibur Flow Cytometry (BD Biosciences, Franklin Lakes, N.J.). FIG. 17A depicts an evaluation of the cellular uptake of free siRNA and the nanocomplexes in HSC-T6 cells, and FIG. 17B depicts an evaluation of the cellular uptake of free siRNA and the nanocomplexes in LX-2 cells.

HSC-T6 cells = assay: Cellular uptake of siRNA nanocomplexes in HSC-T6 cells; assay type: cell-based, rat; conditions: siRNA nanocomplex modified with Peptide-431 (SNPP) versus free siRNA, SNCP, SNVP, 50 nM siRNA
Protocol: as §2

HSCs = assay: Biodistribution of siRNA nanocomplexes in rats and rats with liver fibrosis; assay type: in vivo, rat; conditions: siRNA modified with Peptide-431 versus other delivery systems; tail vein, 0.065 mg/kg siRNA, 2 hrs
Protocol: The siRNA was labeled with Alexa Flour-647, and the nanocomplexes were prepared using neutravidin as we reported before. The free siRNA and nanocomplexes (SNCP, SNVP, SNPP) were injected into rats by tail vein at an siRNA dose of 0.065 mg/kg. After 2 hrs, the rats were sacrificed and the major organs including the liver, heart, lung, spleen, muscle, kidney, and blood were harvested for fluorescence imaging using a Xenogen IVIS imaging system.
The siRNA was labeled with Alexa Flour-647, and the nanocomplexes were prepared using neutravidin as we reported before. Liver fibrosis was inducted by injection of CCl4. The free siRNA and nanocomplexes (SNCP, SNVP, SNPP) were injected into rats with liver fibrosis by tail vein at an siRNA dose of 0.065 mg/kg. After 2 hrs, the rats were sacrificed and the major organs including the liver, heart, lung, spleen, muscle, kidney, and blood were harvested for fluorescence imaging using a small animal imaging system (Brunker MS FX Pro). FIG. 19 depicts images evaluating the biodistribution of free siRNA and the nanocomplexes in Rats with liver fibrosis.

LX 2 cells [4] = assay: Serum protein binding study: uptake in LX 2 cells in media containing FBS; assay type: cell-based, human; conditions: LX 2, OptiMEM and DMEM with FBS up to 10%
Description: It is important to evaluate the stability of peptides in the presence of serum proteins, which may nonspecifically bind to IGF2R specific peptides. As a result, we evaluated the cellular uptake of 5 FAM labeled peptide 431 in LX 2 cells in the serum reduced medium OptiMEM and DMEM media containing different concentrations of FBS.

HSC T6 cells [5] = assay: Cell viability (MTT) / apoptotic effect in HSC T6 cells; assay type: cell-based, rat; conditions: HSC-T6, fused to peptide-431
Protocol: (§3) LX 2 and HSC T6 (1×10^4 cells per well) cells were cultured in 96 well plates for 12 h in DMEM medium containing 10% FBS. The peptide 431/KLA fusion peptide, the mixture of peptide 431 and KLA peptide, and KIA peptide were incubated with the cells for 48 h. Cell viability was measured using MTT (3 (4,5 dimethylthiazol2 yi) 2,5 diphenyltetrazolium bromide) assay.
(§4) The proapoptotic peptide having the sequence of SEQ ID NO: 13, KLAKLAKKLAKLAK (KLA), is able to trigger mitochondrial disruption and induce cell death. However, the KLA peptide itself cannot enter cells to exert its proapoptotic activity. We therefore prepared a KLA/peptide 431 fusion peptide and examined its proapoptotic activity in LX 2 and HSC T6 cells.

HSC T6 cells [6] = assay: Apparent equilibrium dissociation constant (Kd) on HSC T6 cells; assay type: binding, rat; conditions: 5 FAM labeled peptide, 1 h at 37° C., flow cytometry
Protocol: (§5) We next measured the apparent equilibrium dissociation constants (Kd) of the peptides (422, 425, 431, and 515) to LX 2 and HSC T6 cells as shown in FIG. 10A and FIG. 10B, respectively. The cells were incubated with 5 FAM labeled peptides at different concentrations for 1 h at 37° C. The labeled cells were detected by flow cytometry, and the apparent Kd value was calculated using GraphPad Prism. […] The result is consistent with the cellular uptake result depicted in FIGS. 7A-7B, 8A-8G, and 9A-9G.

[7] = tested on: rat hepatic stellate cells HSC T6; assay: Cellular uptake of 5 FAM labeled peptides in HSC T6 cells (flow cytometry); assay type: cell-based; conditions: 1 h incubation; for binding affinity compared to the control peptide and other selected peptides: HSC T6 cells
Protocol: as §1

LX 2 cells [8] = assay: Cell viability (MTT) / apoptotic effect in LX 2 cells; assay type: cell-based, human
Protocol: as §3, §4

LX 2 cells [9] = assay: Apparent equilibrium dissociation constant (Kd) on LX 2 cells; assay type: binding, human
Protocol: as §5
In order to improve the binding affinity of peptide 431, […] may have the molecular structure depicted in FIG. 16A. Affinity of the dimeric peptide 431 was evaluated in LX 2 cells as described above.

VHWDFRQWWQPS [Peptide-431, IGF2R-specific peptide ligand encoded by phage 431]
cellular uptake ([1]; 5 FAM labeled peptide, nonenzymatic cell dissociation solution, 1 h incubation, LX 2): 62%
effect of incubation time on cellular uptake ([1]; LX 2, different incubation time points): time dependent increase
binding affinity compared to the control peptide and other selected peptides ([1]; 1 h incubation): highest binding affinity
binding affinity compared to the control peptide and other selected peptides ([1]; 1 h incubation, listed as Phage No. 431): greatest binding affinity
effect of cell detachment method on cellular uptake ([1]; nonenzymatic cell dissociation solution versus trypsin, LX 2): higher cellular uptake in nonenzymatic cell dissociation solution
binding affinity to recombinant human IGF2R protein (phage ELISA) (IGF2R [2]): highest binding affinity
binding affinity to recombinant human IGF2R protein (phage ELISA) (IGF2R [2]; listed as peptide-431): highest binding affinity and specificity
cellular uptake after silencing IGF2R with siRNA (IGF2R [3]; listed as peptide 431): lower uptake
cellular uptake after silencing IGF2R with siRNA (IGF2R [3]; listed as peptide-431): significantly reduced
specificity to IGF2R on LX 2 cells (IGF2R [3]; concluded from IGF2R silencing): high specificity
cellular uptake of siRNA (LX-2 cells): highest cellular uptake of siRNA
cellular uptake of siRNA (HSC-T6 cells): highest cellular uptake of siRNA
specificity for HSCs (biodistribution) (HSCs): highest specificity for HSCs
cellular uptake in presence of FBS (LX 2 cells [4]): not significantly affected
uptake of proapoptotic KLA peptide (HSC T6 cells [5]): enhances the uptake
Kd (HSC T6 cells [6]): 12.3 µM
cellular uptake ([7]; 5 FAM labeled peptide, nonenzymatic cell dissociation solution, HSC T6): 12%
binding affinity compared to the control peptide and other selected peptides [7]: highest binding affinity
binding affinity compared to the control peptide and other selected peptides ([7]; listed as Phage No. 431): greatest binding affinity
uptake of proapoptotic KLA peptide (LX 2 cells [8]; LX-2, fused to peptide-431): enhances the uptake

dimeric peptide 431: dimer of Peptide-431 linked via a lysine, imaging agent coupled to the linker (FIG. 16A) (VHWDFRQWWQPS; also: dimer of two peptide chains linked via a lysine, imaging agent coupled to the linker)
improvement of binding affinity (Kd) of dimer compared to monomeric peptide 431 (LX 2 cells [9]): approximately 9 fold
improvement of binding affinity (Kd) of dimer compared to monomeric peptide 431 (LX 2 cells [9]; listed as Dimerization of peptide-431): approximately 9 fold

KLAKLAKKLAKLAK (proapoptotic peptide) [KLA peptide, reference compound]
apoptotic activity / cell death (LX 2 cells [8]; LX 2, 48 h, MTT): did not exhibit apoptotic activity

Reference: patent US10138273B2, “Peptide ligands for hepatic stellate cells” (The Curators of the University of Missouri, priority 2015, dated 2018)
